These compounds were tested against soluble, sperm-specific adenylate cyclase (sAC) (Homo sapiens, UniProt Q96PN6) (assay: sAC assay (HTRF cAMP detection)). Conditions: read-out: IC50 (μM), inhibition of soluble adenylate cyclase.
Assay type: biochemical
From the text: In a suitable buffer system, soluble, sperm-specific adenylate cyclase catalyzes the conversion of adenosine triphosphate (ATP) to cyclic adenosine monophosphate (cAMP) and pyrophosphate. Free cAMP generated in this way is then used in a competitive detection technique, in which the binding of a europium cryptate Eu[K]-labeled anti-cAMP antibody (anti-cAMP-Eu[K]-AB) to a modified allophycocyanine-1 molecule labeled with cAMP molecules (cAMP-XL665) is prevented. In the absence of exogenous cAMP, after excitation at 335 nm there is Fluorescence Resonance Energy Transfer (FRET) between the anti-cAMP-Eu[K]-AB (FRET donor) and the cAMP-XL665 molecule (FRET acceptor). This process is quantified, time-resolved, on the basis of the emission of the FRET acceptor XL665 (665 nm and 620 nm). A decrease in signal (measured as Well Ratio; calculated from the Formula: [(E665 nm/E620 nm)×10000]) can be attributed to the presence of cAMP and thus to the activity of sAC. First, 1.5 μl of the test substance (in 30% DMSO) is placed in each well of a 384-well test plate (polystyrene; 384, NV), and in the solvent controls only 30% DMSO. Then 10 μl of a dilute sAC enzyme solution is applied (enzyme stock solution in 300 mM NaCl, 10% glycerol; pH 7.6; enzyme intermediate and final dilution a) 1:10 and b) 1:2000 in each case in: 1.0 mM MnCl2; 0.2% BSA; 50 mM Tris pH 7.5 in H2O). […]
Next, 8 μl of detection solution 1 is placed in a well of the 384-well measuring plate (measuring plate: polystyrene; 384, SV—black; detection solution 1: 50 μl cAMP-XL665; 950 μl reconstituted buffer; 2200 μl PBS; cAMP-XL665: prepared by adding 5 ml H2O to the lyophilized product according to the instructions in Cis bio Kit: 62AMPPEC; storage: in aliquots at −80° C.). […] After further incubation for 90 min at room temperature, the HTRF result is measured either on the Packard Discovery or with the RubiStar HTRF measuring instrument (delay: 50 μs; integration time: 400 μs).

Chain of soluble, sperm-specific adenylate cyclase (sAC) (Q96PN6 whole entry): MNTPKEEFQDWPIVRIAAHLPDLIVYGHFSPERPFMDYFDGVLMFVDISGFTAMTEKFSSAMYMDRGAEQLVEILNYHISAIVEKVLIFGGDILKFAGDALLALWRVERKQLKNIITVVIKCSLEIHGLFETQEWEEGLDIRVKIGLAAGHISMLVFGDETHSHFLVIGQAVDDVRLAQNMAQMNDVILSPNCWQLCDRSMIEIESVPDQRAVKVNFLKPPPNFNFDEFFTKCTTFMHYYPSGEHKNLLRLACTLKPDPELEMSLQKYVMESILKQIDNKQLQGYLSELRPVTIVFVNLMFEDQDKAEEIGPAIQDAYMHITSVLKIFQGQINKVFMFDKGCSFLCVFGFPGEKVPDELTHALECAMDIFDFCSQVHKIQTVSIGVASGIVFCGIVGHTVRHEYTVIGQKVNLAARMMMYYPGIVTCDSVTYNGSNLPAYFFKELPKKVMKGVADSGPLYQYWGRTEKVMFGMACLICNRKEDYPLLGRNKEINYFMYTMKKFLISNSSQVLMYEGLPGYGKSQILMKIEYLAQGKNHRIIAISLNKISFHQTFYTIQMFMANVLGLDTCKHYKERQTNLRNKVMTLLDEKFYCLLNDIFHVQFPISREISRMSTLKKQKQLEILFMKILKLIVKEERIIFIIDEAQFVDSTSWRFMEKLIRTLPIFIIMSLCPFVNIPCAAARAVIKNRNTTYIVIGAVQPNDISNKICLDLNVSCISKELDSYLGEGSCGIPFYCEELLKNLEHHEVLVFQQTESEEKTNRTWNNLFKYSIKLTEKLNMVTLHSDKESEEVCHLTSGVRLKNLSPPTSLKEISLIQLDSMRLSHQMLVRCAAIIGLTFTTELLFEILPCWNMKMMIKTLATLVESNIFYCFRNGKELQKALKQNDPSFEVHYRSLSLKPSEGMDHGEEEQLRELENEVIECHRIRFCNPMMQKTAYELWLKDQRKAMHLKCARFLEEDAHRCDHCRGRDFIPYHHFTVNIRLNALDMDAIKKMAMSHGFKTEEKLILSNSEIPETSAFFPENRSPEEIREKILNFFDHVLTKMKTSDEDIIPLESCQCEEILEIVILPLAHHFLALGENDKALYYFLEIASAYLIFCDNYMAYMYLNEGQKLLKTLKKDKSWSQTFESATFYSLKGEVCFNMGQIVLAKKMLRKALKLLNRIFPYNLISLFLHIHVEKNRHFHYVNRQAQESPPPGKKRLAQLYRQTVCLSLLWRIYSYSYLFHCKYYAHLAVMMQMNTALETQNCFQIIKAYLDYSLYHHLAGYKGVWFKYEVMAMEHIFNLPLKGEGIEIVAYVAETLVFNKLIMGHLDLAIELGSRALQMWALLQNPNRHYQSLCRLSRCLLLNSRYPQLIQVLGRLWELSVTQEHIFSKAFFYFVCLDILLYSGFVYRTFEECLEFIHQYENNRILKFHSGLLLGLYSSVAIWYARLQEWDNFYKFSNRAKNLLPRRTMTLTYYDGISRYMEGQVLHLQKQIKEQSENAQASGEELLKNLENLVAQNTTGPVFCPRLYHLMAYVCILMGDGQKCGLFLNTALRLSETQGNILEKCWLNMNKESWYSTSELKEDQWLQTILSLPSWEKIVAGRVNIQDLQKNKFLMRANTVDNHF

Row | IC50 [µM] | Compound
1 | 4.3 | CC(O)CNC(=O)c1oc2ccc(NS(=O)(=O)c3ccc(C(C)(C)C)cc3)cc2c1-c1ccccc1 (racemic) [Example 16, (+/−)-5-(4-tert-Butylphenylsulfonylamino)-3-phe-nyl-1-benzofuran-2-carboxylicacid-(2-hydroxypropyl)amide]
2 | 8.5 | CC(CO)NC(=O)c1oc2ccc(NS(=O)(=O)c3ccc(C(C)(C)C)cc3)cc2c1-c1ccccc1 (racemic) [Example 17, (+/−)-5-(4-tert-Butylbenzenesulfonylamino)-3-phe-nyl-1-benzofuran-2-carboxylicacid-(2-hydroxy-1-meth-ylethyl)amide]
3 | 5.2 | CC(C)(C)c1ccc(S(=O)(=O)Nc2ccc3oc(C(=O)NCCN4CCOCC4)c(-c4ccccc4)c3c2)cc1 [Example 6, 5-(4-tert-Butylbenzenesulfonylamino)-3-phe-nyl-1-benzofuran-2-carboxylicacid-(2-morpholin-4-ylethyl)amide]
